{
  "source": "patent US20020032188A1",
  "about": "“Compositions and methods for treatment of anal fissure” (priority 2000, published 2002)",
  "origin": "cited, not measured here",
  "settings": "topical ISDN",
  "data": [
    {"smiles": "O=[N+]([O-])O[C@H]1CO[C@H]2[C@@H]1OC[C@H]2O[N+](=O)[O-]", "note": "[ISDN, isosorbide dinitrate]", "values": [
      {"measurement": "treatment of chronic anal fissure, result reported", "value": "effective treatment for chronic anal fissure"}
    ]}
  ]
}
